From the METLIN SMRT retention time set (Domingo-Almenara et al. 2019)

experiment: gradient 5% acetonitrile 3 min, to 50% in 2 min, to 85% in 15 min, held 3 min, 100 µL/min; conditions: column: Zorbax Extend-C18 2.1 x 50 mm; eluents: water / acetonitrile, 0.1% formic acid
In short: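 Data were gathered over 3 months by HPLC coupled to a quadrupole time-of-flight mass spectrometer, operated in positive and negative ionization mode. Mixtures of ~100 pure standards ran on a Zorbax Extend-C18 column (2.1 × 50 mm, 1.8 μm) at 100 μL/min, with water and acetonitrile each containing 0.1% formic acid and dead and dwell volumes of 40 μL and 900 μL. Retention time was read from adduct peaks picked by computer and checked manually.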

Row | RP-LC retention time [s] | Compound
1 | 989 | CCOC(=O)c1nc(Nc2ccc(C(=O)OC(C)C)cc2)c2ccccc2n1
2 | 558 | Cc1c(C(=O)NCCCN2CCOCC2)sc2ncnc(N3CCN(c4ccccn4)CC3)c12
3 | 754 | O=C(c1ccsc1)N1CCC2(CC1)NC(=O)N(Cc1ccccc1)C2=O
4 | 646 | O=C(c1cnccn1)N1CCC(c2noc(C3CC3)n2)C1 (stereo unspecified)
5 | 892 | CC(=O)c1cccc(NC(=O)NC(c2ccccc2)c2nnc(-c3ccccc3)o2)c1 (stereo unspecified)
6 | 940 | O=S(=O)(c1ccc(Cl)cc1)N1CCC(c2nc(-c3ccccn3)no2)CC1
7 | 889 | O=C(NCc1noc(C2CCCCC2)n1)c1coc(C2CC2)n1
8 | 849 | CCOC(=O)Cc1ccc(NC(=O)N2CCCn3nc(-c4cccs4)cc3C2)cc1
9 | 979 | COc1cc(Cl)cc2c1OC=CC(C(=O)Nc1ccc(N3CCOCC3)cc1)=C2
10 | 708 | Cc1ccc(-c2nc(-c3ccc4c(c3)nnn4CCN(C)C)no2)cc1F
11 | 985 | CC(C)n1c(=O)sc2cc(S(=O)(=O)N3CCC(C(=O)NCCc4ccccc4)CC3)ccc21
12 | 685 | CNc1nc(N2CCCCCC2)nc(-n2cnc(SC)n2)n1
13 | 721 | Cn1c(N2CCC(C(=O)N3CCN(c4ccc(Cl)cc4)CC3)CC2)cc(=O)n(C)c1=O
14 | 791 | O=C(NCCCn1cccc1)c1ccc(F)c(F)c1
15 | 672 | CN=C(NC#N)Nc1ccc(C2=NNC(=O)CC2C)cc1 (stereo unspecified)
16 | 651 | CCSc1nccc2c1ccn2CC(=O)NCc1ccc(OC)cc1OC
17 | 695 | Cc1ccc(C(=O)NCCc2nc3cccnc3n2C(C)C)c(C)c1
18 | 538 | Cc1ncsc1CN1CCC2(CC1)c1[nH]c3ccccc3c1CCN2C
19 | 1020 | COc1ccc(N2CC(c3nc(-c4oc5ccc(OC)cc5c4C)no3)CC2=O)cc1 (stereo unspecified)
20 | 1020 | O=C(c1cccc(Cl)c1)N1N=C(c2ccco2)CC1c1ccco1 (stereo unspecified)
21 | 635 | CCc1cccc(C)c1N(C(=O)CSCc1nc2ccccc2[nH]1)C(C)COC (stereo unspecified)
22 | 824 | Cc1noc(-c2ccc(NC(=O)c3cccnc3)cc2)n1

Row | RP-LC retention time [s] | Compound
23 | 968 | COc1ccc(OCc2noc(CNS(=O)(=O)c3ccc4c(c3)CCCC4)n2)cc1
24 | 716 | O=C(Nc1cnc(N2CCCC2)nc1)c1cccc(F)c1
25 | 908 | O=c1ccc(-c2ccc3c(c2)OCO3)nn1CCc1nc(-c2ccccc2)no1
26 | 773 | CCCc1c(C(=O)O)nnn1-c1ccc(OC)c(Cl)c1
27 | 1230 | CCc1ccc(NC(=O)C2CCCN(c3nc4ccccc4nc3C(F)(F)F)C2)cc1 (stereo unspecified)
28 | 828 | Cc1cccc(S(=O)(=O)Nc2ccc(C3(C(=O)NCC4CCCO4)CC3)cc2)c1 (stereo unspecified)
29 | 974 | Cc1cc(C)c(S(=O)(=O)N2CCCC(C(=O)Nc3ccc4c(c3)OCO4)C2)c(C)c1 (stereo unspecified)
30 | 1270 | CCn1cc(C2=CCN(S(=O)(=O)c3ccc(C(C)(C)C)cc3)CC2)c2cccnc21
31 | 697 | CC(C)NC(=O)c1ccc(-c2nc3cc(NS(=O)(=O)c4ccc(F)cc4F)ccc3n2C)cc1
32 | 1150 | Cc1cc(C)cc(NC(=O)Nc2nccn(-c3cc(Cl)ccc3C)c2=O)c1
33 | 843 | O=C(CCc1csc(NC(=O)NC2CCCCC2)n1)NCCC1=CCCCC1
34 | 660 | Cc1nc(CC(=O)Nc2c(F)cccc2F)sc1C(=O)NC1CC1
35 | 1350 | Cc1occc1C(=O)Nc1nc(-c2ccc(CC(C)C)cc2)cs1
36 | 698 | Cc1ccc(Cl)cc1NC(=O)CSc1ccc(N2CCCC(C(=O)NC3CC3)C2)nn1 (stereo unspecified)
37 | 596 | CCN1CCCC1CNC(=O)CN1C(=O)C2CCCCN2c2ccc(C(=O)N(C)C)cc21 (stereo unspecified)
38 | 634 | CCOc1ccc(CN2C[C@@H]3C(=O)N(CCc4ccccc4)C(=O)[C@@H]3C2)cc1OC
39 | 940 | COc1ccc(Nc2ccc3c(=O)c(-c4ccccc4OC)coc3c2)c(OC)c1
40 | 712 | COc1ccc(N2C(=O)N[C@H]3C[C@@]2(C)Oc2c(OC)cccc23)c(OC)c1
41 | 645 | CCS(=O)(=O)c1cccc(-c2cc(C(=O)NC3CCN(C)CC3)c(C)c3[nH]c4ncc(C)cc4c23)c1
42 | 675 | CNc1nc(Nc2cc(F)ccc2F)nc2ccccc12
43 | 706 | COC(=O)c1ccc(NC(=O)NCCn2c(C(F)(F)F)nc3cccnc32)cc1
44 | 661 | CC1CCCN(CC2CCN(C(=O)Nc3ccc(Br)cc3)CC2)C1 (stereo unspecified)

Row | RP-LC retention time [s] | Compound
45 | 818 | CC1(C(=O)NCc2ccccc2)CN(S(C)(=O)=O)CC(=O)N1Cc1ccccc1F (stereo unspecified)
46 | 747 | CCn1ccc2sc(C)c(C(=O)NCC(C)C)c2c1=O
47 | 714 | COc1cccc(NC(=O)C2CCN(C(=O)C3CC(=O)N(c4ccccc4)C3)CC2)c1 (stereo unspecified)
48 | 1140 | Cc1ccc(NC(=O)Cn2nc(N3CCCC(C)C3)c3ccccc3c2=O)cc1 (stereo unspecified)
49 | 672 | CCCC(=O)Nc1ccc2c(c1)CN(C(=O)Cc1ccc(F)cc1)C(C(=O)N(C)C)C2 (stereo unspecified)
50 | 786 | COc1ccc(CSc2nccc3c2ccn3CC(=O)N2CCN(c3ccccc3)CC2)cc1
51 | 592 | O=C(Nc1ccccc1F)N1CCc2nnc(C3CC3)n2CC1
52 | 606 | COCCN1C(=O)c2cccn2CC1CNC(=O)c1sc(C)nc1C (stereo unspecified)
53 | 853 | Cc1csc(NC(=O)CN2C(=O)C3CCCCN3c3ccc(S(=O)(=O)N(C)C)cc32)n1 (stereo unspecified)
54 | 594 | O=C(Nc1ccc(CC(=O)N2CCOCC2)cc1)c1ccco1
55 | 802 | CCc1nc(-c2ccc(S(=O)(=O)N3CCC(C(=O)N4CCc5ccccc54)CC3)cc2)no1
56 | 618 | Cn1cnc(S(=O)(=O)N2CCC(Cc3nncn3Cc3ccccc3)CC2)c1
57 | 797 | N#Cc1ccc(S(=O)(=O)N2CCCN(S(=O)(=O)c3ccccc3)CCC(=O)NCC2)cc1
58 | 914 | COCCCNC(=O)c1ccc2c(c1)N=C(C)c1cc(Cl)ccc1S2
59 | 932 | Cc1ccc(S(=O)(=O)N2CCC(C)(C(=O)NCc3ccccc3)CC2)cc1
60 | 690 | O=C(O)c1cc(-c2ccc3c(c2)OCO3)nc2cc3c(cc12)OCCO3
61 | 800 | NS(=O)(=O)c1ccc(CCNCc2ccc(-c3ccc(Cl)cc3Cl)o2)cc1
62 | 939 | Cc1cc(C)c(C)c(S(=O)(=O)N(C)C)c1C
63 | 578 | COc1cccc(S(=O)(=O)Nc2ccc(C(=O)Nc3ccncc3)cc2)c1
64 | 650 | O=C(O)c1cn(-c2ccccc2F)nn1

Row | Compound | RP-LC retention time [s]
65 | Cc1nnc(N2CCCC(C(=O)N3CCC4(CC3)OCCO4)C2)c2nn(-c3ccccc3)c(C)c12 (stereo unspecified) | 660
66 | CCc1c(C(=O)O)nnn1Cc1cccc(OC)c1 | 687
